Laboratory results reported in PubChem BioAssay (NCI).
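Cultured in 96-well plates, cells were exposed to test compound for 48 hours across five concentrations. TGI: concentration producing complete growth inhibition.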

Assays:
Test in all cases: NCI tumour cell line growth inhibition, 48 h
COLO 205 colon = system: COLO 205 colon
HCC-2998 colon = system: HCC-2998 colon
HCT-15 colon = system: HCT-15 colon
HOP-92 NSCLC = system: HOP-92 NSCLC
K-562 leukemia = system: K-562 leukemia
KM12 colon = system: KM12 colon
MCF7 breast = system: MCF7 breast
MOLT-4 leukemia = system: MOLT-4 leukemia
NCI-H23 lung = system: NCI-H23 lung
NCI-H460 lung = system: NCI-H460 lung
NCI/ADR-RES ovarian = system: NCI/ADR-RES ovarian
OVCAR-3 ovarian = system: OVCAR-3 ovarian
OVCAR-5 ovarian = system: OVCAR-5 ovarian
RPMI-8226 leukemia = system: RPMI-8226 leukemia
RXF 393 renal = system: RXF 393 renal
SF-539 CNS = system: SF-539 CNS
SK-MEL-28 melanoma = system: SK-MEL-28 melanoma
SK-MEL-5 melanoma = system: SK-MEL-5 melanoma
SK-OV-3 ovarian = system: SK-OV-3 ovarian
U251 CNS = system: U251 CNS

| Compound | TGI (COLO 205 colon) [µM] | TGI (HCC-2998 colon) [µM] | TGI (HCT-15 colon) [µM] | TGI (HOP-92 NSCLC) [µM] | TGI (K-562 leukemia) [µM] | TGI (KM12 colon) [µM] | TGI (MCF7 breast) [µM] | TGI (MOLT-4 leukemia) [µM] | TGI (NCI-H23 lung) [µM] | TGI (NCI-H460 lung) [µM] | TGI (NCI/ADR-RES ovarian) [µM] | TGI (OVCAR-3 ovarian) [µM] | TGI (OVCAR-5 ovarian) [µM] | TGI (RPMI-8226 leukemia) [µM] | TGI (RXF 393 renal) [µM] | TGI (SF-539 CNS) [µM] | TGI (SK-MEL-28 melanoma) [µM] | TGI (SK-MEL-5 melanoma) [µM] | TGI (SK-OV-3 ovarian) [µM] | TGI (U251 CNS) [µM] |
| --- | --- | --- | --- | --- | --- | --- | --- | --- | --- | --- | --- | --- | --- | --- | --- | --- | --- | --- | --- | --- |
| O=C(Nc1ccc(C2=NCCN2)cc1)c1cncc(C(=O)Nc2ccc(C3=NCCN3)cc2)c1 | > 100 | > 100 | > 100 | > 100 | > 100 | > 100 | > 100 | > 100 | > 100 | > 100 | > 100 | > 100 | > 100 | > 100 | > 100 | > 100 | > 31.6 | > 100 | > 100 | > 100 |
| CCOC(=O)C(NC(C)=O)(Nc1ccc(F)cc1)C(F)(F)F (stereo not given) | > 100 | > 100 | > 100 | > 100 | > 100 | > 100 | > 100 | > 100 | > 100 | > 100 | > 100 | > 100 | > 100 | > 100 | > 100 | > 100 | > 100 | > 100 | > 100 | > 100 |
